According to the supplement of paper PMC3974653:
Structures can show the parent of a compound that is named as a salt.

System: MTT (mouse pheochromocytoma)
Test: IC50 of cell viability (ATP content)
Settings: (24 or 48 h)
How it was run: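 Library compounds in DMSO (23 nl by pintool, 8 concentrations, final 0.5 nM to 46 µM) were applied for 24 or 48 hrs to MTT mouse pheochromocytoma cells that had been cultured overnight at 37°C, 5% CO2 in white 1536-well plates. Cell viability was measured by CellTiter-Glo ATP luminescence, read after 15 minutes, with positive-control wells set at 100% and DMSO wells at 0%. A four-parameter logistic fit of the normalised signals yielded the IC50.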

SMILES | IC50 of cell viability [µM]
CO[C@@H]1[C@@H](OC2OC(C)C(OC3CC(C)(O)C(O)C(C)O3)C(N(C)C)C2O)[C@@H](CC=O)C[C@@H](C)[C@@H](OC2CCC(N(C)C)C(C)O2)/C=C/C=C/C[C@@H](C)OC(=O)C[C@H]1OC(C)=O (stereo partly specified) [Acetyl Spiramycin] | > 46
CCCc1c2oc(C(=O)O)cc(=O)c2cc2c(=O)cc(C(=O)O)n(CC)c12 [Nedocromil] | > 46
O.O.O=C([O-])[C@H](CC(=O)N1C[C@H]2CCCC[C@H]2C1)Cc1ccccc1.O=C([O-])[C@H](CC(=O)N1C[C@H]2CCCC[C@H]2C1)Cc1ccccc1.[Ca+2] [MITIGLINIDE CALCIUM HYDRATE] | > 46
CC(=O)O.N=C(N)NCCCC(NC(=O)C1CCCN1C(=O)C1CSSCCC(=O)NC(Cc2ccc(O)cc2)C(=O)NC(Cc2ccccc2)C(=O)NC(CCC(N)=O)C(=O)NC(CC(N)=O)C(=O)N1)C(=O)NCC(N)=O.O.O.O (stereo unspecified) [DESMOPRESSIN ACETATE] | > 46
NCCNCCNCCNCCN [Tetraethylenepentamine] | > 46
CC(=O)OC1CC2CCC1(C)C2(C)C (stereo unspecified) [BORNYL ACETATE] | > 46
OC[C@@H]1O[C@H](C[C@@H]1O)N2\C=C(\I)C(=O)NC2=O [Idoxuridine] | > 46
CC(=O)N[C@@H](CC(=O)O)C(=O)N[C@@H](CCC(=O)O)C(=O)O [SPAGLUMIC ACID] | > 46
CC(C)NCC(O)c1ccccc1Cl (stereo unspecified) [CLORPRENALINE HYDROCHLORIDE] | > 46
CC[N+]1(C)CCCC(OC(=O)C(O)(c2ccccc2)c2ccccc2)C1.[Br-] (stereo unspecified) [PIPENZOLATE BROMIDE] | > 46
CCCCCC[C@@H](CCC)C(=O)O [(R)-2-Propyloctanoic acid (Arundic Acid)] | > 46
CCCCCCCC(=O)CC[C@H]1[C@@H](C/C=C/CCCC(=O)OC(C)C)[C@@H](O)C[C@H]1O [Unoprostone Isopropyl Ester] | > 46
CCCCCCCC(=O)O [caprylic acid (octanoic acid)] | > 46
Nc1ccccc1C(=O)O [o-Anthranilic acid] | > 46
OC(CCN1CCCCC1)(c1ccccc1)C1CC2C=CC1C2 (stereo unspecified) [Biperiden] | > 46
CC12CCC(C[N+](C)(CCC[N+](C)(C)C)C1)C2(C)C (stereo unspecified) [TRIMETHIDINII METHOSULFAS] | > 46
S=C(S)N1CCNCC1 [PIPERAZINE-CARBON DISULFIDE COMPLEX] | > 46
CCCCC(CC)COC(=O)c1ccccc1C(=O)OCC(CC)CCCC (stereo unspecified) [Di(2-ethylhexyl) phthalate] | > 46
C[C@H]1[C@@H]2Cc3ccc(O)cc3[C@]1(C)CCN2CCc1ccccc1 [(+)-Phenazocine] | > 46
COc1c(O)cc2c(c1O)[C@H]1O[C@@H](CO)[C@@H](O)[C@@H](O)[C@@H]1OC2=O.O [Bergenin monohydrate] | > 46
O=[N+]([O-])c1c2ccccc2cc2ccccc12 [9-Nitroanthracene] | > 46

Other lines, results leading:

IC50 of cell viability [µM] | SMILES
> 46 | O=C(O)CC1=S=C(c2ccccc2)N=C1c1ccc(Cl)cc1 [Fentiazac]
> 46 | COc1ccc([C@]2(C#N)CC[C@H](C(=O)O)CC2)cc1OC1CCCC1 [CILOMILAST]
> 46 | COc1ccc2nc(NC(=O)Nc3ccccc3)sc2c1 [Frentizole]
> 46 | Cc1nccn1CC1CCc2c(c3ccccc3n2C)C1=O (stereo unspecified) [Ondansetron]
> 46 | CC(C)C(NC(=O)C(CC(=O)O)NC(=O)C(CCCCN)NC(=O)C(N)CCCNC(=N)N)C(=O)NC(Cc1ccc(O)cc1)C(=O)O (stereo unspecified) [THYMOPENTINUM]
> 46 | CCCN(CCc1cccs1)[C@H]1CCc2c(O)cccc2C1 [ROTIGOTINE]
> 46 | CC(C)=CCC/C(C)=C\CC/C(C)=C\CC/C(C)=C\CC1=C(C)C(=O)c2ccccc2C1=O [Vitamin K2]
> 46 | NC(=O)OC[C@H](O)COc1ccc(Cl)cc1 [Chlorphensin carbamate]
> 46 | CN1C2CCC1CC(OC(=O)c1c[nH]c3ccccc13)C2 (stereo unspecified) [TROPISETRON]
> 46 | N[S+](=O)([O-])c1cc(C(=O)O)cc(N2CCCC2)c1Oc1ccccc1 [Piretanide]
> 46 | CN(C)[C@H]\1[C@@H]2[C@@H](O)[C@H]3\C(=C(O)/[C@]2(O)C(=O)\C(=C1O)C(N)=O)C(=O)C4=C(C=CC=C4O)[C@@]3(C)O [Oxytetracycline HCl]
> 46 | NCCc1ccc(O)c(O)c1 [DOPAMINE]
> 46 | CC(C)CN(C[C@@H](O)[C@H](Cc1ccccc1)NC(=O)O[C@@H]1CO[C@H]2OCC[C@H]21)[S+](=O)([O-])c1ccc(N)cc1 [DARUNAVIR ETHANOLATE]
> 46 | NC[C@H](O)c1ccc(O)c(O)c1 [Norepinephrine bitartrate]
> 46 | N=C(N)NC(=N)NCCc1ccccc1 [Phenformin hydrochloride]
